Assay results as given in US11827628B2, “Compositions and methods for inhibition of the JAK pathway” (Rigel Pharmaceuticals, Inc., priority 2005, dated 2023).

tested on: up-regulation of ICAM-1 (CD54) by IFNγ in U937 human monocytic cells; assay: U937 IFNγ ICAM1 FACS Assay; assay type: cell-based; conditions: U937 cells stimulated with IFNγ; ICAM-1 expression by FACS; read-out: IC50, Example 44
Outline: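 Readout was the geometric-mean APC anti-ICAM-1 signal by FACS on live U937 monocytic cells, with % live cells also recorded. Cells were exposed to compounds (8 points, 3-fold dilutions, duplicates) for 30 min at 37 °C before 18–24 h of IFNγ stimulation. EC50 values were computed from the dose curve.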

First: COc1cc(Nc2ncc(F)c(Nc3ccc(OC(C)C#N)c(C)c3)n2)ccc1S(N)(=O)=O (racemic) [Compound I-64, Racemic N2-(4-Aminosulfonyl-3-methoxy)phenyl-N4-[4-(1-cyano)ethoxy-3-methyl]phenyl-5-fluoro-2,4-pyrimidinediamine]
Second: Cc1cc(Nc2nc(Nc3ccc(C)c(S(N)(=O)=O)c3)ncc2F)ccc1OC(C)C#N (racemic) [Compound I-62, Racemic N2-(3-Aminosulfonyl-4-methyl)phenyl-N4-[4-(1-cyano)ethoxy-3-methyl]phenyl-5-fluoro-2,4-pyrimidinediamine]
The IC50 of the first is 1.6-fold higher: 1150 nM for the first, 735 nM for the second.

Going from `Cc1cc(Nc2nc(Nc3ccc(C)c(S(N)(=O)=O)c3)ncc2F)ccc1OCC(N)=O` [Compound I-95, N4-(4-Aminocarbonylmethoxy-3-methyl)phenyl-N2-(3-aminosulfonyl-4-methyl)phenyl-5-fluoro-2,4-pyrimidinediamine] to `Cc1cc(Nc2nc(Nc3cccc(S(N)(=O)=O)c3)ncc2F)ccc1OCC(N)=O` [Compound I-92, N4-(4-Aminocarbonylmethoxy-3-methyl)phenyl-N2-(3-aminosulfonyl)phenyl-5-fluoro-2,4-pyrimidinediamine], the IC50 rises from 6300 nM to 15600 nM (2.5-fold). The first is the more potent here.

Going from `Cc1cc(Nc2nc(Nc3cccc(S(N)(=O)=O)c3)ncc2F)ccc1OC(C)C#N` (racemic) [Compound I-61, Racemic N2-(3-Aminosulfonyl)phenyl-N4-[4-(1-cyano)ethoxy-3-methyl]phenyl-5-fluoro-2,4-pyrimidinediamine] to `Cc1cc(Nc2nc(Nc3ccc(S(N)(=O)=O)cc3)ncc2F)ccc1OC(C)C#N` (racemic) [Compound I-60, Racemic N2-(4-Aminosulfonyl)phenyl-N4-[4-(1-cyano)ethoxy-3-methyl]phenyl-5-fluoro-2,4-pyrimidinediamine], the IC50 rises from 427 nM to 848 nM (2-fold).

Compared with `CC(C#N)Oc1ccc(Nc2nc(Nc3ccc(S(N)(=O)=O)cc3)ncc2F)cc1` (racemic) [Compound I-66, Racemic N2-(4-Aminosulfonyl)phenyl-N4-[4-(1-cyano)ethoxy]phenyl-5-fluoro-2,4-pyrimidinediamine], `CC(C#N)Oc1ccc(Nc2nc(Nc3cccc(S(N)(=O)=O)c3)ncc2F)cc1` (racemic) [Compound I-65, Racemic N2-(3-Aminosulfonyl)phenyl-N4-[4-(1-cyano)ethoxy]phenyl-5-fluoro-2,4-pyrimidinediamine] is 2.2-fold lower in IC50: 689 nM for the first, 316 nM for the second. The second is the more potent here.

Going from `Cc1ccc(Nc2ncc(F)c(Nc3ccc(Cn4ccnc4)cc3)n2)cc1S(N)(=O)=O` [III-82, N2-(3-Aminosulfonyl-4-methylphenyl)-5-fluoro-N4-[4-(1-imidazolylmethyl)phenyl]-2,4-pyrimidinediamine] to `CNS(=O)(=O)c1cc(Nc2ncc(F)c(Nc3ccc(Cn4ccnc4)cc3)n2)ccc1C` [III-83, 5-Fluoro-N2-[3-(N-methylaminosulfony)-4-methylphenyl]-5-fluoro-N4-[4-(1-imidazolylmethyl)phenyl]-2,4-pyrimidinediamine], the IC50 falls from 2270 nM to 1360 nM (1.7-fold). The second is the more potent here.

First: CC(C#N)Oc1ccc(Nc2nc(Nc3ccc(F)c(S(N)(=O)=O)c3)ncc2F)cc1 (racemic) [Compound I-68, Racemic N2-(3-Aminosulfonyl-4-fluoro)phenyl-N4-[4-(1-cyano)ethoxy]phenyl-5-fluoro-2,4-pyrimidinediamine]
Second: Cc1ccc(Nc2ncc(F)c(Nc3ccc(OC(C)C#N)cc3)n2)cc1S(N)(=O)=O (racemic) [Compound I-67, Racemic N2-(3-Aminosulfonyl-4-methyl)phenyl-N4-[4-(1-cyano)ethoxy]phenyl-5-fluoro-2,4-pyrimidinediamine]
The IC50 of the first is 3.8-fold higher: 913 nM for the first, 239 nM for the second. The second is the more potent here.

Compared with `NS(=O)(=O)c1cccc(Nc2ncc(F)c(Nc3ccc(Cn4ccnc4)cc3)n2)c1` [III-81, N2-(3-Aminosulfonylphenyl)-5-fluoro-N4-[4-(1-imidazolylmethyl)phenyl]-2,4-pyrimidinediamine], `CC(C)(C#N)Oc1ccc(Nc2nc(Nc3cccc(S(N)(=O)=O)c3)ncc2F)cc1` [Compound I-76, N2-(3-Aminosulfonyl)phenyl-N4-[4-(1-cyano-1-methyl)ethoxy]phenyl-5-fluoro-2,4-pyrimidinediamine] is 3.1-fold lower in IC50: 3430 nM for the first, 1120 nM for the second. The second is the more potent here.

Going from `Cc1ccc(Nc2ncc(F)c(Nc3ccc(OC(C)(C)C#N)cc3)n2)cc1S(N)(=O)=O` [Compound I-73, N2-(3-Aminosulfonyl-4-methyl)phenyl-N4-[4-(1-cyano-1-methyl)ethoxy]phenyl-5-fluoro-2,4-pyrimidinediamine] to `CC(C)(C#N)Oc1ccc(Nc2nc(Nc3ccc(F)c(S(N)(=O)=O)c3)ncc2F)cc1` [Compound I-74, N2-(3-Aminosulfonyl-4-fluoro)phenyl-N4-[4-(1-cyano-1-methyl)ethoxy]phenyl-5-fluoro-2,4-pyrimidinediamine], the IC50 rises from 1060 nM to 1760 nM (1.7-fold). The first is the more potent here.

First: Cc1ccc(Nc2ncc(F)c(Nc3ccc4c(c3)CCN4S(C)(=O)=O)n2)cc1S(N)(=O)=O [VII-61, N2-(3-Aminosulfonyl-4-methylphenyl)-5-fluoro-N4-[4-(1-methylsulfonyl)indolin-5-yl]-2,4-pyrimidinediamine]
Second: Cc1ccc(Nc2ncc(F)c(Nc3ccc(OCC#N)c(Cl)c3)n2)cc1S(N)(=O)=O [Compound I-43, N2-(3-Aminosulfonyl-4-methylphenyl)-N4-(3-chloro-4-cyanomethoxypheny)-5-fluoro-2,4-pyrimidinediamine]
The IC50 of the first is 2.2-fold lower: 356 nM for the first, 771 nM for the second.

First: Cc1cnc(Nc2ccc(S(N)(=O)=O)cc2)nc1Nc1ccc(OCC#N)cc1 [Compound I-57, N2-(4-Aminosulfonylphenyl)-N4-(4-cyanomethoxyphenyl-5)-methyl-2,4-pyrimidinediamine]
Second: CC(C)(C#N)Oc1ccc(Nc2nc(Nc3ccc(S(N)(=O)=O)cc3)ncc2F)cc1 [Compound I-75, N2-(4-Aminosulfonyl)phenyl-N4-[4-(1-cyano-1-methyl)ethoxy]phenyl-5-fluoro-2,4-pyrimidinediamine]
The IC50 of the first is 22-fold lower: 140 nM for the first, 3100 nM for the second. The first is the more potent here.

First: Cc1cc(Nc2nc(Nc3ccc(F)c(S(N)(=O)=O)c3)ncc2F)ccc1OCC#N [Compound I-34, N2-(3-Aminosulfonyl-4-fluoro)phenyl-N4-(4-cyanomethoxy-3-methyl)phenyl-5-fluoro-2,4-pyrimidinediamine]
Second: Cc1cc(Nc2nc(Nc3ccc(F)c(S(N)(=O)=O)c3)ncc2F)cc(C)c1OCC#N [Compound I-35, N2-(3-Aminosulfonyl-4-fluoro)phenyl-N4-(4-cyanomethoxy-3,5-dimethyl)phenyl-5-fluoro-2,4-pyrimidinediamine]
The IC50 of the first is 1.7-fold lower: 1050 nM for the first, 1820 nM for the second. The first is the more potent here.

Going from `CNS(=O)(=O)c1cc(Nc2ncc(F)c(NCCc3ccc(-c4ccncc4)cc3)n2)ccc1C` [III-78, 5-Fluoro-N2-[3-N-(methyl)aminosulfonyl-4-methylphenyl]-N4-[4-(4-pyridinyl)phenethyl]-2,4-pyrimidinediamine] to `CNS(=O)(=O)c1cc(Nc2ncc(F)c(Nc3ccc(Cc4ccncc4)cc3)n2)ccc1C` [III-75, 5-Fluoro-N2-[3-(N-methylaminosulfony)-4-methylphenyl]-5-fluoro-N4-[4-(4-pyridinylmethyl)phenyl]-2,4-pyrimidinediamine], the IC50 falls from 22900 nM to 1770 nM (13-fold). The second is the more potent here.

`Cc1ccc(Nc2ncc(F)c(Nc3ccc(OCC(N)=O)cc3)n2)cc1S(N)(=O)=O` [Compound I-94, N4-(4-Aminocarbonylmethoxy)phenyl-N2-(3-aminosulfonyl-4-methyl)phenyl-5-fluoro-2,4-pyrimidinediamine] and `Cc1ccc(Nc2ncc(F)c(Nc3cccc(OCC(N)=O)c3)n2)cc1S(N)(=O)=O` [Compound I-90, N4-(3-Aminocarbonylmethoxy)phenyl-N2-(3-aminosulfonyl-4-methyl)phenyl-5-fluoro-2,4-pyrimidinediamine] are within 1.5-fold of each other in IC50: 5670 nM for the first, 6160 nM for the second.

Compared with `Cc1ccc(Nc2ncc(F)c(Nc3cc(C)c(OC(C)C#N)c(C)c3)n2)cc1S(N)(=O)=O` (racemic) [Compound I-72, Racemic N2-(3-Aminosulfonyl-4-methyl)phenyl-N4-[4-(1-cyano)ethoxy-3,5-dimethyl]phenyl-5-fluoro-2,4-pyrimidinediamine], `Cc1cc(Nc2nc(Nc3cccc(S(N)(=O)=O)c3)ncc2F)cc(C)c1OC(C)C#N` (racemic) [Compound I-71, Racemic N2-(3-Aminosulfonyl)phenyl-N4-[4-(1-cyano)ethoxy-3,5-dimethyl]phenyl-5-fluoro-2,4-pyrimidinediamine] is 1.8-fold lower in IC50: 574 nM for the first, 328 nM for the second. The second is the more potent here.

Going from `Cc1cc(Nc2nc(Nc3ccc(S(N)(=O)=O)cc3)ncc2F)cc(C)c1OC(C)C#N` (racemic) [Compound I-63, Racemic N2-(4-Aminosulfonyl)phenyl-N4-[4-(1-cyano)ethoxy-3,5-dimethyl]phenyl-5-fluoro-2,4-pyrimidinediamine] to `Cc1cc(Nc2nc(Nc3cccc(S(N)(=O)=O)c3)ncc2F)cc(C)c1OCC(N)=O` [Compound I-93, N4-(4-Aminocarbonylmethoxy-3,5-dimethyl)phenyl-N2-(3-aminosulfonyl)phenyl-5-fluoro-2,4-pyrimidinediamine], the IC50 rises from 691 nM to 11100 nM (16-fold). The first is the more potent here.

First: Cc1ccc(Nc2ncc(F)c(Nc3ccc(OCC#N)cc3)n2)cc1S(=O)(=O)NC(=O)C(C)C [Compound I-37, N4-(4-Cyanomethyleneoxy)phenyl-5-fluoro-N2-(3-isobutyrylaminosulfonyl-4-methyl)phenyl-2,4-pyrimidinediamine]
Second: COc1cc(Nc2ncc(F)c(Nc3ccc(OC(C)C#N)cc3)n2)ccc1S(N)(=O)=O (racemic) [Compound I-70, Racemic N2-(4-Aminosulfonyl-3-methoxy)phenyl-N4-[4-(1-cyano)ethoxy]phenyl-5-fluoro-2,4-pyrimidinediamine]
The IC50 of the first is 15-fold higher: 5740 nM for the first, 384 nM for the second. The second is the more potent here.

same assay, conditions: U937 cells stimulated with IFNγ; ICAM-1 expression by FACS; sodium Salt; read-out: IC50, Example 44

In the case of `CCC(=O)NS(=O)(=O)c1cccc(Nc2ncc(F)c(Nc3ccc(OCc4nc(C)no4)cc3)n2)c1` [Compound I-273], the IC50 is reported as 5100 nM.
